In patent publication US20230000982A1, “COMPOSITION FOR PREVENTING OR TREATING CANCER, CONTAINING NOVEL TRIFLUOROMETHYL PHENYL PYRAZOLE DERIVATIVE AS ACTIVE INGREDIENT” (KOREA INSTITUTE OF RADIOLOGICAL & MEDICAL SCIENCES, priority 2019, published 2023):

What was measured:
[1] = system: breast cancer cell lines BT549, T47D and MCF7; assay: Clonogenic assay, combination of KRCT-1 and radiation; type: cell-based, Human; conditions: 2.5 μM KRCT-1 + 2.5 Gy radiation; compared to DMSO group
Description: A clonogenic assay was performed to confirm the effect of the combination of KRCT-1 and radiation. To perform clonogenic assay, breast cancer cell lines BT549, T47D and MCF7 were treated with 2.5 μM of KRCT-1 compound, and 2.5 Gy radiation was used using Biobeam GM8000 (Gamma-Gamma-Service Medical GmbH, Leipzig, Germany). The experimental technique for the remaining colony formation was performed in the same manner as in the above Example, and was shown in FIG. 6a. In the group treated with KRCT-1, the radiation treatment effect of the two cancer cell lines was significant compared to the group treated with DMSO, confirming that the number of cancer cell colonies decreased.

Trk-A kinase [2] = molecular target: T1, Trk-A kinase (Homo sapiens, UniProt P04629); assay: Western blotting of Trk-A downstream signaling (phosphorylated ERK, phosphorylated STAT3) in cancer cell lines; type: cell-based; conditions: 2.5, 5, 10, 20 μM; FIG. 7c
T1 sequence (P04629 33-796): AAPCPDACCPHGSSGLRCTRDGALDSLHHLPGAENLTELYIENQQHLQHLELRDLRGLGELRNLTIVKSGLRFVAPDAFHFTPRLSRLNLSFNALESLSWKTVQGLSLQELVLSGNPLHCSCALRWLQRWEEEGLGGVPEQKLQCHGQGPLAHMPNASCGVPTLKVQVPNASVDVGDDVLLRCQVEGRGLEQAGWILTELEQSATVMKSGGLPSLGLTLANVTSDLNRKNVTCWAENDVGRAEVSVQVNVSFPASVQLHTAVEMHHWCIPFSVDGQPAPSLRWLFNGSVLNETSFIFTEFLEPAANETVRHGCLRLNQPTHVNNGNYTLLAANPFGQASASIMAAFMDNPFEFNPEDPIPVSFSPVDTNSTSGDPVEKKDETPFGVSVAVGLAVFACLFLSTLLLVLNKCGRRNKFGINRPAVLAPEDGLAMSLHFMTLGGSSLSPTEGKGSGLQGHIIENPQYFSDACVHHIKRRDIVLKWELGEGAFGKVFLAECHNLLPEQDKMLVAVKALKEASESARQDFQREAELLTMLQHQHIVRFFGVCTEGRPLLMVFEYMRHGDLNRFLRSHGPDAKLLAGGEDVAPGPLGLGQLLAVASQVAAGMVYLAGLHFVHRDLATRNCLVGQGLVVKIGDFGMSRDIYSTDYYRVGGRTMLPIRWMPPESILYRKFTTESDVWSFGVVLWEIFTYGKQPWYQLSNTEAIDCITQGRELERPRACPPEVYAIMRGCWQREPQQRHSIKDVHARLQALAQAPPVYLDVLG
Description: In cancer cell lines, it was confirmed whether KRCT-1 inhibits the activity of Trk-A kinase to inhibit downstream signaling. In the case that Trk-A is activated by ligand, the MEK/ERK and STAT3 signaling pathways in the cell are activated. Using this as an indicator, changes in phosphorylated ERK and phosphorylated STAT3 were confirmed in the case that cancer cell lines were treated with KRCT-1 concentrations (2.5, 5, 10, 20 μM). For Western blotting, 20 μg of protein was isolated through SDS-PAGE electrophoresis and transferred to PVDF membrane. The following specific antibodies were used: rabbit polyclonal antibody phospho-STAT3 (Tyr705) (ab76315; Abcam, UK), mouse monoclonal antibodies phospho-ERK (Thr202/Tyr204) (sc-514302; Santa Cruz Biotechnology), ERK (sc-7383; Santa Cruz Biotechnology), and STAT3 (sc8019; Santa Cruz Biotechnology) were used. The remaining conditions of Western blotting were performed in the same manner as in the above Example.

[3] = system: breast cancer cell lines BT549, MCF7, T47D and MDA MB231; assay: Colonogenic (colony formation) assay; type: cell-based, Human; conditions: 10 μM, cultured for 14 days; various breast cancer cell lines
Description: (§1) Human-derived tumor cell lines and breast cancer cell lines MCF7 and T47D, BT549, MDA-MB231, and MDA-MB453 was cultured in a DMEM medium (Corning, N.Y., USA), containing 10% fetal bovine serum (FBS; HyClone, South Logan, Utah) and 1% penicillin/streptomycin at 37° C. and 5% CO2 conditions.
Colonogenic analysis was performed to determine whether the selected KRCT-1 could efficiently kill cancer cells. First, cells of various breast cancer cell lines BT549, MCF7, T47D and MDA MB231 (500-1000 cells) were cultured in a 60 mm culture plate, and 24 hours later, 10 μM of the compound was treated, respectively, and cultured for 14 days.

BT549 = assay: Annexin V/PI staining FACS apoptosis analysis, BT549; type: cell-based, Human; conditions: BT549, 20 μM, 48 h
Description: (§2) After Annexin V/PI staining, FACS analysis was performed to confirm the cancer cell killing effect. Cancer cell lines MCF7 and BT549 were treated for 48 h in the presence and absence of 20 μM of KRCT-1, and analysis of Annexin V binding was performed using the Annexin V-FITC apoptosis Detection Kit (BD Biosciences, San Jose, Calif., USA) according to the manufacturer's recommended protocol. Briefly, after collecting all cells, including the cell medium, the cells were centrifuged at 1500 rpm for 5 minutes, washed with 1×PBS, resuspended at 1×10^6 cell concentration, and then 100 μl of the cell suspension was added in a 5 ml tube, and 5 μl of Annexin V-FITC and 5 μl of PI were added thereto and cultured in the dark for 15 minutes at RT. 400 μl of 1× binding buffer was added to each tube and samples were analyzed by flow cytometry. As a result, it was confirmed that MCF7 induced about 40%, BT549 induced about 23% cell death.

Breast cancer cells MCF7 = assay: Tumorsphere forming assay; type: cell-based, Human; conditions: cultured for 14 days; various breast cancer cell lines
Description: as §1
In order to determine whether the selected KRCT-1 can effectively reduce the tumorsphere formation in cancer cells, tumorsphere forming assay was performed. Breast cancer cells MCF7 (2500-10000 cells) were suspended in serum-free DMEM/F12 (welGENE), containing 1% penicillin, B-27 (1:50; invitrogen), 20 ng/mL epidermal growth factor (R&D Systems) and 20 ng/mL fibroblasts growth factors (R&D Systems) on low adhesion plates and cultured. After 24 hours had elapsed, the cells were treated with the compound and cultured for 14 days, and then the diameter of the tumorspheres was measured and quantified, which is shown in FIG. 3D.

[4] = system: Breast cancer cell lines BT549, T47D, and MCF7; assay: Western blotting of survivin and apoptosis markers; type: cell-based, Human; conditions: 0, 2.5, 5, 10, and 20 μM, 24 h
Description: Apoptosis by KRCT-1 was confirmed through Western blotting. After separation of 20 μg of protein by SDS-PAGE electrophoresis and transferred to PVDF membrane, the following specific antibodies were used: rabbit polyclonal antibodies cleaved PARP (Asp214) (#9541) and phospho-Chk2 (Thr68) (#2661; Cell Signaling Technology, MA); rabbit monoclonal antibodies caspase3 (#9664), chk2 (#6334S), survivin (#2808S); mouse monoclonal antibody caspase 9 (551246; BD Pharmingen, Calif., USA). In addition, mouse monoclonal antibody (3-actin (C4; Santa Cruz Biotechnology, Calif., USA) was used as a loading control, washed with 1×PBS/0.1% Tween 20, and HRP-binding secondary antibody and improved chemiluminescence detection system was used to detect the binding protein, and an image of the band was obtained using the Amersham Imager 600 system (GE Healthcare Life Science), which is shown in FIG. 5b.
Breast cancer cell lines BT549, T47D, and MCF7 were treated with 0, 2.5, 5, 10, and 20 μM of KRCT-1 in a dose-dependent manner for 24 h each, and the expression level of survivin essential for the survival of cancer cells and the expression levels of an apoptosis markers, clv-PARP, caspase 9 and caspase 3 were checked. According to the concentration of the treated KRCT-1, the expression levels of survivin and pro-caspase 9 in cancer cells were decreased, and it was confirmed that the truncated PARP and caspase3 increased during apoptosis. Through the above results, it was confirmed that apoptosis was activated due to KRCT-1.

MCF7 = assay: Annexin V/PI staining FACS apoptosis analysis, MCF7; type: cell-based, Human; conditions: MCF7, 20 μM, 48 h
Description: as §2

[5] = system: breast cancer cell lines BT549, T47D and MCF7; assay: Western blotting, radiation combination effect; type: cell-based, Human; conditions: 10 μM + 3 Gy radiation, 30 h
Description: In order to confirm the synergistic effect of radiosensitivity of cancer cell lines through treatment with KRCT-1 through Western blotting experiments, 10 μM of KRCT-1 compound was treated in breast cancer cell lines BT549, T47D and MCF7, and Biobeam GM8000 (Gamma-Gamma-Service Medical GmbH, Leipzig, Germany) was used to culture for 30 h after treatment with 3 Gy radiation. For Western blotting, 20 μg of protein was isolated through SDS-PAGE electrophoresis and transferred to a PVDF membrane. The following specific antibodies were used: rabbit polyclonal antibody phospho-Chk2 (Thr68) (#2661; Cell Signaling Technology, MA); rabbit monoclonal antibody chk2 (#6334S) were used. The remaining conditions of Western blotting were performed in the same manner as in the above Example. […] Through the above results, it was confirmed that apoptosis of cancer cells appeared effectively.

MCF7 cells = assay: γ-H2AX foci experiment (DNA damage) with radiation; type: cell-based, Human; conditions: 20 μM for 24 h + 2 Gy radiation, fixed at 1 h; compared to each control group
Description: To determine how KRCT-1 affects DNA damage induced by radiation, a γ-H2AX foci experiment was performed. In the case that single-stranded or double-stranded DNA is cleaved by various DNA damaging agents including radiation, γ-H2AX phosphorylation occurs and nuclear foci are generated in the cell nucleus. Using this as an index, the effect of the combination according to DNA damage was evaluated. After culturing 2.5×10^4 MCF7 cells in a 24-well plate for 48 h, KRCT-1 20 μM was treated for 24 h, and the cells were fixed at 1 h after irradiation with 2 Gy of radiation. Then, after washing with phosphate buffered saline for permeation, 4% paraformaldehyde and 0.2% Triton-X were added and reacted for 10 min each. After 1 h pretreatment with 5% fetal bovine serum, 1:100 dilution of γ-H2AX (05-656; EMD Millipore Corp., MA, USA) antibody to phosphorylated H2AX for was treated for 16 h, and it was washed 3 times with 0.1% TritonX-100/phosphate buffered saline solution (Tritonx-100/PBS). Alexa488-conjugated secondary antibody (AP132JA4, Invitrogen) was reacted for 2 h at room temperature and labeled, and phosphorylated γ-H2AX foci were photographed and analyzed with IN Cell Analyzer 6000 (GE Healthcare Life Science). […] Taken together, in cancer cells, it was confirmed that KRCT-1 is a material that can be effectively used as a radiosensitizer.

Trk-A kinase [6] = molecular target: T1, Trk-A kinase; assay: In vitro kinase assay of Trk-A; type: biochemical; set-up: purchased Eurofins Pharma Discovery Services (commissioned via Goma Biotech); conditions: serially diluted 3-fold from 100 μM; FIG. 7b
Description: To measure the selective reactivity of KRCT-1 to a specific kinase, in vitro kinase assay profiling was commissioned to Goma Biotech (Seoul, Korea), and the enzyme reaction experiment was performed at Eurofins Pharma Discovery Services (Scotland, UK). For kinase profiling, 104 kinase series and 10 μM KRCT-1 were used in the reaction as a broad oncology panel. To obtain the IC50 kinase assay of Trk-A, KRCT-1 serially diluted 3-fold from 100 μM was used.

BT549 cell line = assay: Immunodeficient mouse tumor model (xenograft) transplanted with BT549; type: in vivo; conditions: 30 mg/kg intraperitoneally twice a week
Description: By subcutaneously implanting a cancer cell line into an immunodeficient mouse tumor model, it was attempted to verify whether the anticancer effect of the compound actually occurs at the in vivo level. After the tumor was formed by implanting the BT549 cell line subcutaneously in the thigh of an immunodeficient mouse, in the case that the size of the tumor reached 50˜100 mm ˜3˜, the compound was intraperitoneally injected at 30 mg/kg twice a week. The tumor volume and the mouse weight were measured 3 times a week for the control group and the KRCT-1 treatment group, respectively. […] Western blotting was performed on the isolated mouse tumor for the tumor growth antigen Ki-67, which is shown B in FIG. 4b.

SMILES: CN(C)S(=O)(=O)Nc1cccc(-c2cnn(-c3ccc(C(F)(F)F)cc3)c2)c1 [KRCT-1, N,N-dimethyl-N′-(3-(1-(4-(trifluoromethyl)phenyl)-1H-pyrazol-4-yl)phenyl)azanesulfonamide]
- number of cancer cell colonies after radiation [1]: decreased
- downstream signaling of Trk-A kinase in cancer cells (Trk-A kinase [2]): inhibited
- number and size of cell colonies [3]: significantly reduced
- cell death (Annexin V/PI FACS) (BT549): about 23%
- diameter of cancer cell tumorspheres (Breast cancer cells MCF7): significantly reduced
- truncated PARP [4]: increased
- truncated caspase3 [4]: increased
- expression level of pro-caspase 9 ([4]; according to concentration): decreased
- expression level of survivin ([4]; according to concentration): decreased
- cell death (Annexin V/PI FACS) (MCF7): about 40%
- expression level of phosphorylated Chk2 after radiation treatment [5]: increased
- expression level of survivin after radiation treatment [5]: decreased
- DNA damage (phosphorylated γ-H2AX foci) (MCF7 cells): DNA damage occurred in relatively many cancer cells
- in vitro Trk-A kinase activity (Trk-A kinase [6]): inhibition
- expression of Ki-67 in isolated mouse tumor (Western blotting) (BT549 cell line): significantly reduced
- tumor volume and size (BT549 cell line; 4 weeks after transplantation, vs control group): smaller tumor volume and size than the control group
- body weight of immunodeficient mice (BT549 cell line; weight measured 3 times a week): not significantly changed
